Like-named read-outs stand apart in the source and are kept apart here.
How the values were obtained:
in vitro = details: mouse, microsomes
[1] = Metabolic stability in mouse liver microsomes; details: for CLint scaled at 1 μM / half-life at 1 μM: mouse, liver microsomes
hCA I = biological target: T1, hCA I (Homo sapiens, UniProt P00915); test: CA inhibition by the esterase assay, hCA I; format: biochemical; details: for IC50: human recombinant enzyme, 4-nitrophenylacetate as substrate
T1 construct: purchased
T1 sequence (P00915 whole entry): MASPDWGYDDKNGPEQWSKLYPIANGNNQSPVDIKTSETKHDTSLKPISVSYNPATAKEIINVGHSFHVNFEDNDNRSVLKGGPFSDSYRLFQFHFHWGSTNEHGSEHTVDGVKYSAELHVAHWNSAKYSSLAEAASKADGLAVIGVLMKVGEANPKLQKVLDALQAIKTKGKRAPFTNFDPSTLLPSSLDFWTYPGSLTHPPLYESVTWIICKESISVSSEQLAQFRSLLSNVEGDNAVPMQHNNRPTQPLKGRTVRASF
Procedure: (§1) The esterase assay was used for testing the inhibitory activities of target compounds against carbonic anhydrases. […] Next, the stock solution of inhibitor was diluted to the specified concentration by using analysis buffer. […] In addition, the purchased CA was diluted with analysis buffer and added to 96-well plates. Next, different concentrations of inhibitors were also added to 96-well plates. To form the inhibitors and enzymes complex, E-I solutions were preincubated together for 4 h before the test at room temperature. Meanwhile, the nonenzymatic hydrolysis rates were tested by the blank control experiments. The absorbances were determined by using multifunctional enzyme marking instrument.

hCA II = hCA II (Homo sapiens, UniProt P00918); test: CA inhibition by the esterase assay, hCA II; format: biochemical; details: human recombinant enzyme, 4-nitrophenylacetate as substrate
Procedure: as §1

hCA IX = biological target: T2, hCA IX (Homo sapiens, UniProt Q16790); test: CA inhibition by the esterase assay, hCA IX; format: biochemical; details: for Inhibition of hCA IX (in words) / IC50: esterase assay; for IC50: human recombinant enzyme, 4-nitrophenylacetate as substrate; for Selectivity Ratio hCA I/hCA IX / Selectivity Ratio hCA II/hCA IX: ratio of IC50 values
T2 construct: purchased
Procedure: as §1

CAI = details: reported coumarins, Figure 1; cited from earlier work
CAII = details: reported coumarins, Figure 1; cited from earlier work
CAIX = details: reported coumarins, Figure 1; cited from earlier work
HT-29 cells = test: Cell viability MTT assay, HT-29; format: cell-based; details: Homo sapiens
Procedure: (§2) In the present study, the potential cytotoxicity of compounds 10a–10p was evaluated in vitro by MTT assay. […] So, half of each cell line were subjected to hypoxic conditions (0.5% O2, 5% CO2 and 94.5% N2) for inducing the expression of CA IX and the other half were incubated under normal conditions (normoxia). Subsequently, all synthesized derivatives were screened at a concentration of 100 μM to test their cytotoxicity in mentioned above cells.
(§3) The two human cancer cell lines were cultivated for 24 h at 37 °C in a 96-well plate. Subsequently, different concentrations of inhibitors were added to 96-well plate and then was incubated for 96 hours. After the MTT solution was added to per well, cancer cells were further incubated for 4 h at 37 °C. Finally, formazan crystals were dissolved by using DMSO. The cancer cells were from American Type Culture Collection.

MDA-MB-231 cells = test: Cell viability MTT assay, MDA-MB-231; format: cell-based; details: Homo sapiens
Procedure: as §2, §3

MCF-10A cell line = test: Cytotoxicity against normal cell line MCF-10A (MTT assay); format: cell-based; details: Homo sapiens
hERG channel = biological target: T3, hERG channel (Homo sapiens, UniProt Q12809); test: Inhibition evaluation on hERG K+ channel (whole-cell recording, HEK 293); format: cell-based; details: HEK 293 cells stably transfected with hERG
T3 construct: expressed in transfected cells; host or cells: HEK 293
T3 sequence (Q12809 whole entry): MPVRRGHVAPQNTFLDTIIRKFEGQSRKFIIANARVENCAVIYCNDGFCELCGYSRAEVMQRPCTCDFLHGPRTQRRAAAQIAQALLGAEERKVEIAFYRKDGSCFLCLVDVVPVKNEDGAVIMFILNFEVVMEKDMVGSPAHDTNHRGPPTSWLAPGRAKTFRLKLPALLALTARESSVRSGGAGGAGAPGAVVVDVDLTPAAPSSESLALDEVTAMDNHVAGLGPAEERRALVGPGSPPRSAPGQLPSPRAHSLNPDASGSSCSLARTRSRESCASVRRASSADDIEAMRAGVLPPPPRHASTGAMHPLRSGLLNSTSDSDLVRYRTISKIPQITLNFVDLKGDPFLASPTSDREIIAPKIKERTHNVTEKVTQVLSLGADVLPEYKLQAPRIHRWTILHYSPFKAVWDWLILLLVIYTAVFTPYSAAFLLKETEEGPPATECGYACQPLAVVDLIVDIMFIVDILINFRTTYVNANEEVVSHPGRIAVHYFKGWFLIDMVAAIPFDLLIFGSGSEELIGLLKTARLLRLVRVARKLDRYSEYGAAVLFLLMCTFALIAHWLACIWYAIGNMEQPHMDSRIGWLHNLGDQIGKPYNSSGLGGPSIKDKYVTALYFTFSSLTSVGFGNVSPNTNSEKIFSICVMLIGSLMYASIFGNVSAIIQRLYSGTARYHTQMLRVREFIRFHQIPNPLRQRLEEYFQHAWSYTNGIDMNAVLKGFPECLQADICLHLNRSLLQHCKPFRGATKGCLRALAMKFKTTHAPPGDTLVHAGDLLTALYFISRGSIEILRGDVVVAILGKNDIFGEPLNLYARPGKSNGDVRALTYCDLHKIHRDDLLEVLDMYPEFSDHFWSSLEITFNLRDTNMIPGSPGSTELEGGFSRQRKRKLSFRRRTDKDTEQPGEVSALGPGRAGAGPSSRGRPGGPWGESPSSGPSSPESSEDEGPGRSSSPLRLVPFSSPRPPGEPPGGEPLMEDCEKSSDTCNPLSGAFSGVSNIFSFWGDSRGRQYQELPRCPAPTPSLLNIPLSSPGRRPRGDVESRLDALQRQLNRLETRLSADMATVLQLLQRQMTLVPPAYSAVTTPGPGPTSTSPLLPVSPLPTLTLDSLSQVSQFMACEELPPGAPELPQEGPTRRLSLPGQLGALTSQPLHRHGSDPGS

[2] = Acute toxicity assay in mice; details: mouse, in vivo, oral, mice, expected from preliminary data
Procedure: (§4) Finally, acute toxicity of representative compounds was conducted in mice to preliminarily evaluate the risk of target compounds to mammals. […].
(§5) […]. After the compound was administered, the latency of death was observed and recorded over a span of 14 days. The experimental protocols were evaluated and approved by the ethics committee of the Shenyang Pharmaceutical University.

mice = test: Acute toxicity assay in mice; details: mouse, in vivo, 14 days
Procedure: as §4, §5

HT-29 cancer cells = test: Extracellular pH measurement, HT-29; format: cell-based, human; details: HT-29, 0.1 and 0.5 mM, 48 h, normoxia and hypoxia
Procedure: (§6) One important feature of CA IX is regulating the pH of tumor cells. The expression of CA IX in solid tumors will make the extracellular pH become more acidic to promote tumor growth and metastasis. Therefore, the effect on extracellular pH of the representative compounds 10a and 10h was tested in hypoxia and normoxic conditions. […] Especially, the extracellular acidification of these two cancer cells could be slightly reversed by this compound under normoxic condition. In addition, the reversal of extracellular acidification is more significant under hypoxia condition. Furthermore, a dose-dependent effect was observed.
(§7) Figure 3 Extracellular pH measurement after 48 h of HT-29 and MDA-MB-231 cancer cells in normoxia and hypoxia upon treatment with compound 10a and 10h (0.1 and 0.5 mM).

MDA-MB-231 cancer cells = test: Extracellular pH measurement, MDA-MB-231; format: cell-based, human; details: MDA-MB-231, 0.1 and 0.5 mM, 48 h, normoxia and hypoxia
Procedure: as §6, §7

Plasma stability assay = format: in vitro ADME; details: male, SD, pH 7.4, rat plasma, 37 °C
Procedure: In fact, most drugs reach their targets to show their pharmacological activity via the circulation system, therefore, the plasma stability of the target compound is a crucial consideration for the evaluation of its druggability. Therefore, the in vitro plasma stability assay of the representative compound was also performed in this study.
Rat plasma was collected from adult male SD rats. The in vitro stability of 10a was determined in rat plasma and in PBS at 37 °C, at the meantime, samples were taken at time points 0, 10, 30, 60, and 120, and tested by HPLC. The rest of the time was incubated in a constant temperature shaker to compare different time points. Compare the peak areas of 10a in PBS or in rat plasma (pH = 7.4, 37 °C) before and after constant temperature incubation at different time points. The compounds in rat plasma were extracted with methanol, centrifuged, and repeated three times, and then detected with a preparative liquid phase at 254 wavelength.

[3] = hypoxia (0.5% O2, 5% CO2 and 94.5% N2), read-out: Cell Viability (%) HT-29 Hypoxia
[4] = normoxia, read-out: Cell Viability (%) HT-29 Normoxia
[5] = hypoxia (0.5% O2, 5% CO2 and 94.5% N2), read-out: Cell Viability (%) MDA-MB-231 Hypoxia
[6] = normoxia, read-out: Cell Viability (%) MDA-MB-231 Normoxia

| IC50 (hCA I) [µM] | IC50 (hCA II) [µM] | IC50 (hCA IX) [µM] | Selectivity Ratio hCA I/hCA IX (hCA IX) | Selectivity Ratio hCA II/hCA IX (hCA IX) | CLint scaled at 1 μM [1] [mL/min/kg] | half-life at 1 μM [1] [h] | Compound | Ki (CAI) [µM] | Ki (CAII) [µM] | Ki (CAIX) [µM] | viability at 100 µM (HT-29 cells; [3]) [%] | viability at 100 µM (HT-29 cells; [4]) [%] | viability at 100 µM (MDA-MB-231 cells; [5]) [%] | viability at 100 µM (MDA-MB-231 cells; [6]) [%] | other results |
| --- | --- | --- | --- | --- | --- | --- | --- | --- | --- | --- | --- | --- | --- | --- | --- |
| – | – | – | – | – | – | – | O=C(O)Cc1ccccc1Nc1c(Cl)cccc1Cl [Diclofenac, reference compound] | – | – | – | – | – | – | – | half-life at 1 μM (in vitro): 0.667 h; CL ([1]; mouse liver microsomes, 1 μΜ test compound): 137.4 mL/min/kg |
| > 100 | > 100 | 0.6 | – | – | – | – | Cc1cc(=O)oc2cc(O)ccc12 [4-Methylumbelliferone, 4-methyl-7-hydroxy coumarin, reference compound] | > 100 | > 100 | 0.56 | – | – | – | – | Inhibition of hCA I (in words) (hCA I): not at all inhibited; Inhibition of hCA IX (in words) (hCA IX): weakly inhibited |
| – | – | – | – | – | – | – | S=c1ccc2ccccc2s1 [Dithiocoumarin 5, dithiocoumarin] | > 100 | > 100 | – | – | – | – | – | – |
| – | – | – | – | – | – | – | O=c1ccc2ccccc2s1 [Thiocoumarin 3, thiocoumarin] | > 100 | – | – | – | – | – | – | – |
| – | – | – | – | – | – | – | O=c1ccc2ccc(O)cc2o1 [Umbelliferone, 7-hydroxy coumarin] | > 58.4 | > 100 | 0.478 | – | – | – | – | Inhibition of hCA I (in words) (hCA I): not at all inhibited; Inhibition of hCA IX (in words) (hCA IX): weakly inhibited |
| – | – | – | – | – | – | – | Cc1cc(=O)oc2cc(O[C@@H]3O[C@H](CO)[C@@H](O)[C@H](O)[C@@H]3O)ccc12 [Compound 9] | > 100 | > 100 | 0.0092 | – | – | – | – | – |
| – | – | – | – | – | – | – | Cc1cc(=O)oc2cc(O[C@@H]3O[C@H](CO)[C@@H](O)[C@H](O)[C@H]3O)ccc12 [Compound 8] | 1 | > 100 | 0.37 | – | – | – | – | – |
| – | – | – | – | – | – | – | S=c1ccc2ccccc2o1 [2-Thiocoumarin 4, 2-thioxocoumarin] | > 100 | > 100 | 6.7 | – | – | – | – | – |
| 23.3 | 19 | 0.132 | 177 | 144 | 4.21 | 21.7 | O=c1ccc2ccc(OCc3cn([C@@H]4O[C@H](CO)[C@@H](O)[C@H]4O)nn3)cc2o1 [Compound 10h, 7-[(1-β-. D-ribofuranosyl-1H-1,2,3-triazol-4-yl)methoxy]-2H-chromen-2-one] | – | – | – | 43.5 | 54 | 37.2 | 63.7 | Effect on extracellular acidification (extracellular pH) (HT-29 cancer cells): weaker reversal effect of extracellular acidification; Effect on extracellular acidification (extracellular pH) (MDA-MB-231 cancer cells): weaker reversal effect of extracellular acidification; melting point: 131.2 to 133.6 °C |
| 35.7 | 12.2 | 0.045 | 793 | 271 | 3.56 | 25.7 | Cc1cc(=O)oc2cc(OCc3cn([C@@H]4OC[C@H](O)[C@H](O)[C@H]4O)nn3)ccc12 [Compound 10n, 7-[(1-β-. L-arabinopyranosyl-1H-1,2,3-triazol-4-yl)methoxy]-4-methyl-2H-chromen-2-one] | – | – | – | 38.2 | 41.5 | 38.5 | 65.7 | melting point: 129.3 to 132.5 °C |
| – | – | – | – | – | – | – | O=c1ccc2ccccc2o1 [Compound 2] | – | – | > 50 | – | – | – | – | – |
| 56.9 | 31.4 | 0.032 | 1778 | 981 | 3.07 | 29.8 | Cc1cc(=O)oc2cc(OCc3cn([C@@H]4O[C@H](CO)[C@@H](O)[C@H](O)[C@H]4N)nn3)ccc12 [Compound 10l, 7-[(1-β-. D-glucosaminogly-1H-1,2,3-triazol-4-yl)methoxy]-4-methyl-2H-chromen-2-one] | – | – | – | 44.8 | 51.2 | 38.5 | 65.1 | melting point: 126.2 to 128.4 °C |

| Compound | IC50 (hCA I) [µM] | IC50 (hCA II) [µM] | IC50 (hCA IX) [µM] | Selectivity Ratio hCA I/hCA IX (hCA IX) | Selectivity Ratio hCA II/hCA IX (hCA IX) | CLint scaled at 1 μM [1] [mL/min/kg] | half-life at 1 μM [1] [h] | Ki (CAI) [µM] | Ki (CAII) [µM] | Ki (CAIX) [µM] | viability at 100 µM (HT-29 cells; [3]) [%] | viability at 100 µM (HT-29 cells; [4]) [%] | viability at 100 µM (MDA-MB-231 cells; [5]) [%] | viability at 100 µM (MDA-MB-231 cells; [6]) [%] | other results |
| --- | --- | --- | --- | --- | --- | --- | --- | --- | --- | --- | --- | --- | --- | --- | --- |
| O=c1ccc2ccc(OCc3cn([C@@H]4O[C@H](CO)[C@@H](O)[C@H](O)[C@@H]4O)nn3)cc2o1 [Compound 10c, 7-[(1-β-. D-mannopyranosyl-1H-1,2,3-triazol-4-yl)methoxy]-2H-chromen-2-one] | 17.5 | 24 | 0.015 | 1167 | 1600 | 4.07 | 22.4 | – | – | – | 40.2 | 42.6 | 38.3 | 55.2 | IC50 (MCF-10A cell line): > 100 µM; IC50 (hERG channel): > 50 µM; LD50 at 14 days [2]: > 1500 mg/kg; Survival Quantity/Total Quantity (mice; 500 mg/kg): 5/5; Survival Quantity/Total Quantity (mice; 1000 mg/kg): 5/5; Survival Quantity/Total Quantity (mice; 1500 mg/kg): 5/5 |
| O=c1ccc2ccc(OCc3cn([C@@H]4O[C@H](CO)[C@@H](O)[C@H](O)[C@H]4O)nn3)cc2o1 [Compound 10a, 7-[(1-β-. D-glucopyranosyl-1H-1,2,3-triazol-4-yl)methoxy]-2H-chromen-2-one] | 33.2 | 21.5 | 0.011 | 3018 | 1955 | 4.76 | 19.2 | – | – | – | 32.5 | 40.2 | 32.9 | 51.3 | Effect on extracellular acidification (extracellular pH) (HT-29 cancer cells): important impact on the extracellular acidification; Effect on extracellular acidification (extracellular pH) (MDA-MB-231 cancer cells): important impact on the extracellular acidification; IC50 (MCF-10A cell line): > 100 µM; remaining at 0 h (Plasma stability assay; time point 0 min): 100%; remaining at 10 min (Plasma stability assay; time point 10 min): 115%; remaining at 0.5 h (Plasma stability assay; time point 30 min): 93%; remaining at 1 h (Plasma stability assay; time point 60 min): 86%; remaining at 2 h (Plasma stability assay; time point 120 min): 102%; half-life (Plasma stability assay; read-out: T1/2 plasma stability): > 20.5 h; IC50 (hERG channel): > 50 µM; LD50 at 14 days [2]: > 1500 mg/kg; Survival Quantity/Total Quantity (mice; 500 mg/kg): 5/5; Survival Quantity/Total Quantity (mice; 1000 mg/kg): 5/5; Survival Quantity/Total Quantity (mice; 1500 mg/kg): 5/5 |
